pIC50: −log10 of the molar value.
Legend:
[1] = biological target: BTK enzyme (recombinant full-length BTK, hBTK) (Homo sapiens (Human), UniProt Q06187); test: Btk enzyme activity assay, LANCE TR-FRET; type: biochemical; details: 50 pM hBTK, 2 μM biotin-A5-peptide, 25 μM ATP; 60 minute compound & enzyme incubation; read-out: BTK binding IC50
Protocol: Btk Enzyme Activity Assay Methods
BTK enzymatic activity was determined with the LANCE (Lanthanide Chelate Excite) TR-FRET (Time-resolved fluorescence resonance energy transfer) assay. […] After 60 minutes incubation with detection reagents, reaction plates were read on a PerkinElmer EnVision plate reader using standard TR-FRET protocol.

[2] = system: HeLa cells; test: [3H] Adenosine uptake assay; type: cell-based; details: Homo sapiens, HeLa, accumulation of tritiated adenosine into HeLa cells; compound concentration range 10 μM to 0.032 nM; read-out: ADU inhibition IC50 (adenosine uptake inhibition potency)
How it was run: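 Accumulation of tritiated adenosine in adherent HeLa cells, detected by scintillant-plate coincidence counting, gives IC50 via 4-parameter robust fit. Compound (constant 0.25% DMSO) applied 30 min ahead, then 60 min radiolabel exposure (added from 500 nM solution), ambient conditions, HBSS with 5% FBS.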

BTK enzyme (recombinant full-length BTK, hBTK), sequence (Q06187 whole entry): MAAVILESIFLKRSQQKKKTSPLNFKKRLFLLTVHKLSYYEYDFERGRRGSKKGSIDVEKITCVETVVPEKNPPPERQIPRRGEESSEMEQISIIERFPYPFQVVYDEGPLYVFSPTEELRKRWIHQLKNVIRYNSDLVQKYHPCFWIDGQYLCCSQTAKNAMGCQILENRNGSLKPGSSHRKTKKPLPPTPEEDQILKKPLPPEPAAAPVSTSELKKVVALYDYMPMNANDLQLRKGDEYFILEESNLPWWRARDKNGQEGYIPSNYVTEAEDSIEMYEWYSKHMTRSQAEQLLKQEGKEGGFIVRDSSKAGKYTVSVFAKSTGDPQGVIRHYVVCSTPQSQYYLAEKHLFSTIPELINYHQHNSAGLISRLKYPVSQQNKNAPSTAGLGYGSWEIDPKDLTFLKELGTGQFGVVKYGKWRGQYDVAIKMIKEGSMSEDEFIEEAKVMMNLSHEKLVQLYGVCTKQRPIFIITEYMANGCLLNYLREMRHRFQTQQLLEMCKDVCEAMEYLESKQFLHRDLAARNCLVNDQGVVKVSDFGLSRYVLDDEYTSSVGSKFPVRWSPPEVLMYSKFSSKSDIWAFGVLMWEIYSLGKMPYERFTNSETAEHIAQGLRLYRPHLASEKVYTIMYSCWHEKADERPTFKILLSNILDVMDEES

Row | Compound | pIC50 [1] | pIC50 [2]
1 | CCOc1cc(C(=O)Nc2cc(C(F)(F)F)ccn2)ccc1-c1nc([C@@]2(C)CC[C@@](C)(C(=O)O)C2)n2ccnc(N)c12 [Example 86, (1R,3S)-3-[8-amino-1-(2-ethoxy-4-{[4-(trifluoromethyl)pyridin-2-yl]carbamoyl}phenyl)imidazo[1,5-a]pyrazin-3-yl]-1,3-dimethylcyclopentane carboxylic acid] | 8.38 | 5.00
2 | CCOc1cc(C(=O)Nc2cc(C(F)(F)F)ccn2)ccc1-c1nc([C@H]2CC[C@@](C(=O)O)(C(C)C)C2)n2ccnc(N)c12 [Example 63, (1S,3S)-3-[8-amino-1-(2-ethoxy-4-{[4-(trifluoromethyl)pyridin-2-yl]carbamoyl}phenyl)imidazo[1,5-a]pyrazin-3-yl]-1-(1-methylethyl) cyclopentane-carboxylic acid] | 9.24 | 5.07
